Data: patent US7803757B2, “Peptides based on the sequence of human lactoferrin and their use” (PharmaSurgics in Sweden AB, priority 1998, dated 2010)
In brackets after ≈: the same amount, converted by molar mass. Bridge positions count the residues as written; N and C are the ends. Ends that are not written are not given here. Peptide text beside a SMILES is read from it.

How the values were obtained:
[1] = tested on: reference strain of S. aureus; assay: bactericidal activity, reference strain of S. aureus (Example 19); format: cell-based; conditions: reference strain of S. aureus 5.0×10^5 per ml, 2 hours at 37° C., lowest concentration tested 6.25 μg/ml
Protocol: In this example the bactericidal activity of three of the peptides according to the invention was studied in a test with a reference strain of S. aureus. A bacterial solution with a concentration of 5.0×10^5 S. aureus bacterial per ml was used. The concentration of each peptide needed to kill 99% of the bacteria (MMC99%) was determined after 2 hours of incubation at 37° C. The lowest concentration tested was 6.25 μg/ml.

[2] = tested on: Candida albicans ATCC 64549; assay: fungicidal and growth inhibitory activity, Candida albicans ATCC 64549 (Example 8); format: cell-based; conditions: for Concentration of agent for 100% killing: C. albicans ATCC 64549 1·10^5/ml, 2 hours 37° C., diluted BHI; for Concentration of agent for inhibition of growth: C. albicans ATCC 64549, spectrophotometrically after 20 hours
Protocol: Candida albicans ATCC 64549 (1·10^5/ml) was incubated in the presence of the peptides during 2 hours at 37° C. in diluted growth medium (BHI, twofold serial dilutions starting with 50 μg/ml). The fungicidal activity was measured by culturing 5 μl from each incubation well on Saboroud agar plates.
The inhibition of growth was measured spectrophotometrically after 20 hours of incubation.

E. coli O14 [3] = assay: bactericidal and growth inhibitory activity, E. coli O14 (Example 9); format: cell-based; conditions: for Concentration of agent for 100% killing: E. coli O14, 2 hours; for Concentration of agent for inhibition of growth: E. coli O14, spectrophotometrically after 20 hours
Protocol: E. coli O14 was incubated as described above in the presence of the peptides during 2 hours. The bactericidal activity was measured in the same way as described above.
The inhibition of growth was measured spectrophotometrically after incubation during 20 hours.

C. albicans [4] = assay: concentration for killing of 99% of C. albicans at different pH (Example 13, FIG. 2); format: cell-based; conditions: for concentration needed for killing of 99% of C. albicans, compared with the capped cyclic peptides (in words): FIG. 2, different pH
Description: In this example the concentrations needed of three peptides according to the invention for killing of 99% of C. albicans at different pH was compared to a reference peptide. The peptides according to the invention were peptide 2 (linear), peptide 3 (cyclic), peptide 4 (linear), peptide 5 (cyclic) and peptide 7 (lactam bridged), all capped. The reference peptides used were an uncapped cyclic form and an uncapped linear form of a Morinaga peptide, Morinaga 24 and 25. The results are illustrated in FIG. 2.

C. albicans (ATCC 64549) = assay: microbe, parasite or virus in culture
Protocol: (§1) In the examples, the minimal microbicidal concentrations (MMC) and minimal inhibitory concentrations (MIC) were determined as follows, unless otherwise specified in the examples. Bacterial or fungal strains were cultured in BHI medium over night at 37° C. A volume of the culture was transferred to a new tube with BHI and incubated for two more hours. Thereafter the cells were spun down and the pellet was suspended in BHI medium diluted 1/100 (1% BHI). The concentration of bacterial or fungal cells was spectrophotometrically determined at 650 nm. The microbial concentrations were also determined by viable counts. Peptides serially diluted in 1% BHI by twofold or tenfold steps were added in triplicate to the wells of a microtiterplate (200 μl per well). The bacterial or fungal cell solutions were added in 10 μl volumes to give a final concentration of approximately 1-5×10^5 cells per ml in the well. The microplate was incubated at 37° C. in a humid chamber for two hours. Thereafter 5 μl was taken from each well and added as a drop onto a blood agar plate and incubated over night at 37° C. The microplate was incubated for another 20 hours at 37° C. and thereafter analysed spectrophotometrically at 650 nm in a microplate reader (Emax, Molecular Devices, USA). The concentration of peptide causing a 99% reduction of the inoculum after 2 hours of incubation was defined as the MMC99%. The MIC value was defined as the concentration giving no increase in the absorbance value above the background level after 20 hours of incubation.
In this example the fungicidal activity of one of the peptides according to the invention, the peptide with SEQ. ID. NO. 7, was compared to the conventional antifungal agents flucytosine and fluconazole, and also to human lactoferrin (hLF). The antifungal agents were tested on C. albicans (ATCC 64549) in a concentration of 2×10^5 cells/ml. The tests were performed in BHI medium diluted 1/100.

E. coli O6K5 [5] = assay: microbicidal activity MMC99%, E. coli O6K5 (Example 28); format: cell-based; conditions: E. coli O6K5 (Table 24)
Protocol: as §1
(§2) In this example the microbicidal activity of eight of the peptides according to the invention was studied, and tested against E. coli O6K5 and C. albicans.
(§3) The concentration of each peptide needed to kill 99% of the microorganisms (MMC99%) was determined.

C. albicans [6] = assay: microbicidal activity MMC99%, C. albicans (Example 28); format: cell-based; conditions: C. albicans (Table 24)
Protocol: as §1, §2, §3

E. coli O14 [7] = assay: bactericidal activity, incubation with E. coli O14 (Example 3, exp. I and III); format: cell-based
Protocol: Human lactoferrin (hLF), peptide 3, and peptide 4, respectively, were incubated with two different strains of E. coli, E. coli O14 (experiment I) and O6K5 (experiment II), in diluted growth medium ( 1/100 BHI—brain heart infusion) for 2 hours. The peptides were also incubated with E. coli O14 in 0.05 mM KCl (pH 7) without any growth medium (experiment III). Different concentrations of the peptides were tested.
After the incubation, samples were taken for bacterial plating. Serial dilutions of five- and fourfold steps were used in experiments I and II, respectively, and of twofold steps in experiment III.
The concentrations of the different peptides required for killing 100% (experiments I and II) or 90% (experiment III) of the bacteria are given in table 2.

Candida albicans = assay: fungicidal activity against Candida albicans strains (Example 4); format: cell-based
Protocol: (§4) In this example the fungicidal activity of the peptides according to the invention was tested and compared to the fungicidal activity of human lactoferrin. Different concentrations of hLF, peptide 3 and peptide 4 were incubated with different strains of Candida albicans and Candida krusei during 1-2 hours at 37° C. in 0.05 mM KCl at pH 7.0 at two different occasions—experiment I and II, respectively. After incubation samples were taken for plating on Saboroud plates.

Candida krusei = assay: fungicidal activity against Candida krusei strains (Example 4); format: cell-based; conditions: Exp. I
Protocol: as §4

[8] = tested on: LPS-induced IL-6 response in a monocytic cell line (THP-1); assay: inhibition of LPS-induced IL-6 response in THP-1 cells (Example 5); format: cell-based; conditions: IL-6 response in THP-1 cells, agent added 30 minutes after LPS
Protocol: In this example an in vitro test was performed to study the anti-inflammatory activity of the peptides according to the invention. More precisely, the inhibitory effect of the peptides according to the invention on the LPS-induced IL-6 response in a monocytic cell line (THP-1) was studied and compared to the effect of human lactoferrin by use of the method described by I. Mattsby-Baltzer et al., Pediatr. Res. 40:257-262, 1996. The IL-6 response in the THP-1 cells was induced by addition of LPS. hLF, peptide 3 and peptide 4, respectively, were added 30 minutes after LPS.

E. coli O6K5 [9] = assay: urinary tract infection in mice, bacteria (CFU) in kidney (Example 6); format: in vivo; conditions: Exp II, mouse strain C3H/Tif, 500 μg per mouse orally 30 minutes after instillation, 24 hours
Protocol: E. coli O6K5 was instilled into the urinary bladder of mice. 30 minutes after instillation the different agents specified in table 5 were administered orally in an amount of 500 μg per mouse and 24 hours after instillation the number of bacteria (CFU) present in bladder and in kidney was determined.
The control group consisted of 10 animals in experiment I and of 23 animals in experiment II. The animals in the control groups were given tap water instead of peptide or hLF.

SEQ. ID. NO. 98: 14 amino acids, modified positions 18-31 of human lactoferrin; sequence only in sequence listing (TKKFQWQRNMRKVR)
MMC99% [1]: ≦6.25 μg/ml

CSCC[C@H](NC(=O)[C@@H]1CC(=O)NCCCC[C@H](NC(=O)[C@H](Cc2ccccc2)NC(=O)[C@H](C)NC(=O)[C@H](CCCCN)NC(=O)[C@@H](NC(C)=O)[C@@H](C)O)C(=O)N[C@@H](Cc2c[nH]c3ccccc23)C(=O)N[C@@H](CCC(N)=O)C(=O)N[C@@H](CCCNC(=N)N)C(=O)N1)C(=O)N[C@@H](CCCNC(=N)N)C(=O)N[C@@H](CCCCN)C(=O)N[C@H](C(=O)N[C@@H](CCCNC(=N)N)C(N)=O)C(C)C [Peptide 7] (Ac-TKAFKWQRDMRKVR-NH2; lactam 5-9)
Concentration of agent for 100% killing [2]: 3.1 µg/mL
Concentration of agent for inhibition of growth [2]: 1.5 µg/mL
Concentration of agent for 100% killing (E. coli O14 [3]): 12.5 µg/mL
Concentration of agent for inhibition of growth (E. coli O14 [3]): ≦1.5 μg/ml
concentration needed for killing of 99% of C. albicans, ranking over all pH (in words) (C. albicans [4]; FIG. 2, all different pH): most effective peptide at all different pH
concentration needed for killing of 99% of C. albicans, compared with the capped cyclic peptides (in words) (C. albicans [4]): better effects than the capped cyclic peptides
MIC (C. albicans (ATCC 64549); ATCC64549): 6.2 mg/L (≈ 3.31 µM)
MMC99% (C. albicans (ATCC 64549); C. albicans ATCC 64549, 2×10^5 cells/ml, BHI diluted 1/100): 6.2 µg/mL
MMC99% [1]: ≦6.25 μg/ml
MMC99% (E. coli O6K5 [5]): >20
MMC99% (C. albicans [6]): 5

Peptide 3: cyclic form of SEQ. ID. NO. 2, disulphide bridge between the two cysteines in positions 5 and 22 (Ac-EATKCFQWQRNMRKVRGPPVSCIKR; disulfide 5-22)
Concentration of agent for 100%/90% killing (E. coli O14 [7]; Exp. I: 100% killing, E. coli O14, 1/100 BHI, 2 hours): 4.4 µg/mL
Concentration of agent for 100%/90% killing (E. coli O14 [7]; Exp. III: 90% killing, E. coli O14, 0.05 mM KCl (pH 7) without growth medium): 12.5 µg/mL
ratio hLF/pep. (concentration for 99% killing) (Candida albicans; Exp. I, C. albicans ATCC 64549): >83
Concentration of agent for 99% killing (Candida albicans; Exp. I, C. albicans ATCC 64549, 0.05 mM KCl pH 7.0, 1-2 hours 37° C.): 0.6 µg/mL
ratio hLF/pep. (concentration for 99% killing) (Candida albicans; Exp. I, C. albicans CCUG 90028): >83
Concentration of agent for 99% killing (Candida albicans; Exp. I, C. albicans CCUG 90028, 0.05 mM KCl pH 7.0): 0.6 µg/mL
ratio hLF/pep. (concentration for 99% killing) (Candida albicans; Exp. II, C. albicans ATCC 64549): >133
Concentration of agent for 99% killing (Candida albicans; Exp. II, C. albicans ATCC 64549, 0.05 mM KCl pH 7.0): 1.5 µg/mL
ratio hLF/pep. (concentration for 99% killing) (Candida albicans; Exp. II, C. albicans CCUG 599): >133
Concentration of agent for 99% killing (Candida albicans; Exp. II, C. albicans CCUG 599, 0.05 mM KCl pH 7.0): 1.5 µg/mL
ratio hLF/pep. (concentration for 99% killing) (Candida albicans; Exp. II, C. albicans CCUG 1759): >133
Concentration of agent for 99% killing (Candida albicans; Exp. II, C. albicans CCUG 1759, 0.05 mM KCl pH 7.0): 1.5 µg/mL
ratio hLF/pep. (concentration for 99% killing) (Candida krusei; C. krusei CCUG 969): 20
Concentration of agent for 99% killing (Candida krusei; C. krusei CCUG 969, 0.05 mM KCl pH 7.0): 1.25 µg/mL
ratio hLF/pep. (concentration for 99% killing) (Candida krusei; C. krusei CCUG 35849): 21
Concentration of agent for 99% killing (Candida krusei; C. krusei CCUG 35849, 0.05 mM KCl pH 7.0): 0.6 µg/mL
% inhibition of LPS response [8]: 17%
Statistical comparison of treatment group with control group of the number of bacteria, CFU, present in kidney (p, Mann-Whitney) (E. coli O6K5 [9]): p = 0.0574
Concentration of agent for 100% killing [2]: 6.2 µg/mL
Concentration of agent for inhibition of growth [2]: 6.2 µg/mL
Concentration of agent for 100% killing (E. coli O14 [3]): 12.5 µg/mL
Concentration of agent for inhibition of growth (E. coli O14 [3]): 3.1 µg/mL
concentration needed for killing of 99% of C. albicans, compared with the capped cyclic peptides (in words) (C. albicans [4]): better effects than the capped cyclic peptides

SEQ. ID. NO. 36: second embodiment, sequence from a position 13-25 to position 31 of human lactoferrin; sequence only in sequence listing (TKCFQWQRNMRKVR; ends and bridges not checked)
MMC99% [1]: ≦6.25 μg/ml
